Data: USRE40594E1, “Inhibitors of the bitter taste response” (Mount Sinai School of Medicine of New York University, priority 1998, dated 2008)
Where a name gives a salt, the structure may show the parent alone. Read-outs that look alike come from different tables or passages of the source.

Test system: bovine taste receptor cell membranes (taste receptors) with transducin
Assay: G protein activation assay (trypsin sensitivity): activation of transducin by bitter tastant plus taste membranes
Format: biochemical, Bovine (Bos primigenius)
Details: for inhibition of in vitro activation of transducin (G-protein) by taste membranes plus bitter compounds, summary statement: DEN, QUI and other bitter compounds, concentrations not given; for inhibition of taste membrane-dependent activation of transducin by DEN (AMP analogues): DEN 5.0 mM, test compound 5.0 mM, FIG. 2
Text: Taste receptor is contacted with gustducin or transducin and tastant, in the presence or absence of test inhibitor, under conditions suitable for activation of the G-protein present. […] In specific non-limiting embodiments, a subunits of transducin or gustducin may be combined with βγ subunits prior to this step, as set forth above. To the reaction mixture comprising taste receptors and gustducin or transducin, test inhibitor and/or bitter tastant may be added, and the resulting solution incubated to permit interaction of the elements.
In preferred embodiments, activation is assessed by a trypsin digestion assay. […] In a specific, non-limiting example, to perform a trypsin digestion assay according to the invention, TPCK-treated trypsin (1:25 trypsin to total protein in the reaction mixture) may be added, and the digestion may be performed at room temperature for about 15 minutes and stopped by adding soybean trypsin inhibitor (6:1 mol/mol inhibitor to trypsin). […] The separated polypeptides may then be transferred by electro-blotter to a poly (vinylidene difluoride) membrane blocked by the addition of 5% BLOTTO [50 mM Tris-HCI, pH 7.4/100 mM NaCl/5% nonfat dry milk], (30 min). G-protein peptides may then be visualized by binding of antibody directed toward transducin or gustducin, followed, for example, by binding of a detectably labeled secondary antibody. If a horseradish peroxidase-labeled secondary antibody is used, binding may be visualized by developing with bicinchoninic acid staining reagents and exposure to x-ray film.
G Protein Activation Assays. Bovine (Bos primigenius) tongues were collected fresh from a local slaughterhouse and transported on ice to the laboratory. Circumvallate papillae were hand dissected, frozen in liquid nitrogen, and stored at −80° C. until use. […] The pelleted membranes were rinsed twice, resuspended in homogenization buffer lacking protease inhibitors, and further homogenized by 20 passages through a 25-gauge needle. Aliquots were either flash frozen or stored on ice until use. […] The separated polypeptides were transferred by electro-blotter to a poly (vinylidene difluoride) membrane, which was blocked by the addition of 5% BLOTTO [50 mM Tris-HCI, pH 7.4/100 mM NaCl/5% nonfat dry milk], (30 min), then transducin peptides were visualized by binding of transducin antiserum and horseradish peroxidase-labeled goat anti-rabbit secondary antibody, followed by developing with bicinchoninic acid staining reagents from Bio-Rad and exposure to x-ray film.
Chemicals. All bitter tastant and buffer chemicals were of the highest purity available and were purchased either from Sigma or Boehringer Mannheim, unless otherwise noted. […] The rabbit polyclonal antitransducin antibody was a kind gift of Mel Simon and John Watson (California Institute of Technology, Pasadena, Calif.).

Compound | activation of transducin by the tastant in the presence of taste membranes (tastant itself, no inhibitor) | inhibition of in vitro activation of transducin (G-protein) by taste membranes plus bitter compounds, summary statement | inhibition of taste membrane-dependent activation of transducin by DEN (AMP analogues) | other results
CC[N+](CC)(CC(=O)Nc1c(C)cccc1C)Cc1ccccc1 [DEN, denatonium benzoate, reference compound] | activated transducin | – | – | –
Nc1ncnc2c1ncn2[C@@H]1O[C@H](CO)[C@@H](O)[C@H]1OP(=O)(O)O [adenosine 2′-monophosphate] | – | successfully inhibit | – | inhibition of DEN/taste receptor activation of transducin (concentration not given, not shown in FIG. 2): potently inhibited
C[C@@H]1O[C@@H](O[C@H]2[C@H](Oc3cc(O)c4c(c3)O[C@H](c3ccc(O)cc3)CC4=O)O[C@H](CO)[C@@H](O)[C@@H]2O)[C@H](O)[C@H](O)[C@H]1O [naringin, reference compound] | activated transducin | – | – | –
Nc1ncnc2c1ncn2[C@@H]1O[C@H](COS(=O)(=O)O)[C@@H](O)[C@H]1O [AMS, adenosine 5′-monosulfate] | – | – | not inhibited | inhibition of taste membrane-dependent activation of transducin by DEN (AMP analogues) (listed as adenosine 5′-monosulfate): did not block
Cc1cn([C@H]2C[C@H](O)[C@@H](COP(=O)(O)O)O2)c(=O)[nH]c1=O [TMP, thymidine 5′-monophosphate] | – | successfully inhibit | inhibited | inhibition of taste membrane-dependent activation of transducin by DEN (AMP analogues) (listed as thymidine 5′-monophosphate): potently inhibited
Cl.Nc1ncnc2nc[nH]c12 [ADE, adenine hydrochloride] | – | – | – | inhibition of taste membrane-dependent activation of transducin by DEN (AMP analogues) (hydrochloride): not inhibited; inhibition of taste membrane-dependent activation of transducin by DEN (AMP analogues) (listed as adenine, hydrochloride): did not block
Nc1ncnc2c1ncn2[C@@H]1O[C@H](CO)[C@@H](OP(=O)(O)O)[C@H]1O [3′AMP, adenosine 3′ monophosphate] | – | successfully inhibit | potently inhibited | –
Cn1c(=O)c2c(ncn2C)n(C)c1=O [CAF, caffeine, reference compound] | – | – | not inhibited | inhibition of taste membrane-dependent activation of transducin by DEN (AMP analogues) (listed as caffeine): did not block
Nc1ncnc2c1ncn2[C@@H]1O[C@H](C(=O)O)[C@@H](O)[C@H]1O [ACA, adenosine 5′-carboxylate] | – | – | not inhibited | inhibition of taste membrane-dependent activation of transducin by DEN (AMP analogues) (listed as adenosine 5′-carboxylate): did not block
Nc1ncnc2c1ncn2[C@@H]1O[C@H](COP(=O)(O)OP(=O)(O)O)[C@@H](O)[C@H]1O [ADP, adenosine 5′ diphosphate] | – | successfully inhibit | potently inhibited | –
Nc1ncnc2c1ncn2[C@@H]1O[C@H](COP(=O)(O)OP(=O)(O)OP(=O)(O)O)[C@@H](O)[C@H]1O [ATP, adenosine 5′ triphosphate] | – | successfully inhibit | potently inhibited | –
CN1[C@@H]2CC[C@H]1C[C@@H](OC(=O)C(CO)c1ccccc1)C2 (stereo partly shown) [atropine, atropine hydrochloride, reference compound] | activated transducin | – | – | –
Cl.Nc1ncnc2c1ncn2[C@@H]1O[C@H](CO)[C@@H](O)[C@H]1O [ADO, adenosine hydrochloride] | – | – | – | inhibition of taste membrane-dependent activation of transducin by DEN (AMP analogues) (hydrochloride): not inhibited; inhibition of taste membrane-dependent activation of transducin by DEN (AMP analogues) (listed as adenosine, hydrochloride): did not block
Cn1c(=O)c2[nH]cnc2n(C)c1=O [THE, theophylline, reference compound] | – | – | not inhibited | inhibition of taste membrane-dependent activation of transducin by DEN (AMP analogues) (listed as theophylline): did not block
Nc1ccn([C@@H]2O[C@H](COP(=O)(O)O)[C@@H](O)[C@H]2O)c(=O)n1 [CMP, 5′-cytidylic acid] | – | successfully inhibit | inhibited | inhibition of taste membrane-dependent activation of transducin by DEN (AMP analogues) (listed as 5′-Cytidylic acid): partially inhibited
nicotine hemisulfate [reference compound] | – | – | – | activation of transducin by the tastant in the presence of taste membranes: activated transducin
Nc1ncnc2c1ncn2[C@@H]1O[C@H](COC(=O)CCC(=O)O)[C@@H](O)[C@H]1O [ASU, adenosine 5′-succinate] | – | successfully inhibit | inhibited | inhibition of taste membrane-dependent activation of transducin by DEN (AMP analogues) (listed as adenosinc 5′-succinate): potently inhibited
O=C(O)/C=C/c1ccc(O)c(O)c1 [caffeic acid, reference compound] | activated transducin | – | – | –
C1CCN2C[C@@H]3C[C@@H](CN4CCCC[C@@H]34)[C@H]2C1 [sparteine, reference compound] | activated transducin | – | – | –
CCN(CC)CCCC(C)Nc1c2ccc(Cl)cc2nc2ccc(OC)cc12 (stereo not shown) [quinacrine, reference compound] | activated transducin | – | – | –
C=C[C@H]1C[N@@]2CC[C@H]1C[C@H]2[C@H](O)c1ccnc2ccc(OC)cc12 [QUI, quinine hydrochloride, reference compound] | activated transducin | – | – | –
